# Source: US10947575B2, “Rapid antimicrobial susceptibility test, based on an analysis of changes in morphology and growth pattern of a microbial cell under different concentrations of various antimicrobial agents, and automated cell image analysis system therefor” (priority 2014, dated 2021)
# Like-named read-outs stand apart in the source and are kept apart here.
# How the values were obtained:
# P. aeruginosa ATCC 27853 [1] = test: AST by analysis of changes in morphology and growth pattern of a microbial cell (MAC 2.0 chip imaging); format: cell-based; details: Normal / Filament / Swelling
# From the text: (§1) Four reference strains (E. coli ATCC 25922, S. aureus ATCC 29213, P. aeruginosa ATCC 27853, and E. faecalis ATCC 29212) were used as objective strains, in accordance with Clinical and Laboratory Standards Institute (CLSI) guidelines. […] The bacterial cell in MAC 2.0TM (QuantaMatrix) was monitored through a S Plan Fluor ELWD 60X (NA 1.49) lens of an inverted optical microscope (Eclipse Ti-Nikon, IX71-Olympus) provided in a heating system, and then, an electron multiplying CCD camera (QuantEM:512SC Photometrics for Eclipse Ti) was used to obtain images of a region where is adjacent to an interface between the agarose well of MAC 2.0TM and the antimicrobial agents well, over time.
# E. coli ATCC 25922 [2] = test: as above; format: cell-based; details: Normal / Filament / Swelling
# From the text: as §1
# P. aeruginosa ATCC 27853 [3] = details: time to result 16~20 hr; cited from earlier work
# P. aeruginosa ATCC 27853 [4] = test: MIC by the proposed method (SCMA), from morphology and growth pattern changes; format: cell-based; details: time to result 3 hr
# From the text: (§2) The bacterial cell in MAC 2.0™ (QuantaMatrix) was monitored through a S Plan Fluor ELWD 60X (NA 1.49) lens of an inverted optical microscope (Eclipse Ti—Nikon, IX71—Olympus) provided in a heating system, and then, an electron multiplying CCD camera (QuantEM:512SC Photometrics for Eclipse Ti) was used to obtain images of a region where is adjacent to an interface between the agarose well of MAC 2.0™ and the antimicrobial agents well, over time. […] In the AST method according to the inventive concept, minimal inhibitory concentration (MIC) was measured using the changes in morphology and growth pattern of the four reference strains (i.e., E. coli ATCC 25922, S. aureus ATCC 29213, P. aeruginosa ATCC 27853, and E. faecalis ATCC 29212) and was compared with MIC quality control (QC) per CLSI guidelines.
# E. coli ATCC 25922 [5] = test: as above; format: cell-based; details: time to result 3 hr
# From the text: as §2
# E. coli ATCC 25922 [6] = details: time to result 16~20 hr; cited from earlier work
# S. aureus ATCC 29213 [7] = test: AST by analysis of changes in morphology and growth pattern of a microbial cell (MAC 2.0 chip imaging); format: cell-based; details: RRG = relatively rapid growth, RSG = relatively slow growth
# From the text: as §1
# E. faecalis ATCC 29212 [8] = test: as above; format: cell-based; details: RRG = relatively rapid growth, RSG = relatively slow growth
# From the text: as §1
# S. aureus ATCC 29213 [9] = details: time to result 16~20 hr; cited from earlier work
# S. aureus ATCC 29213 [10] = test: MIC by the proposed method (SCMA), from morphology and growth pattern changes; format: cell-based
# From the text: as §2
# E. faecalis ATCC 29212 [11] = test: as above; format: cell-based
# From the text: as §2
# E. faecalis ATCC 29212 [12] = details: time to result 16~20 hr, cited from earlier work
# [13] = time to result 4 hr, unit assumed
Compound,Criteria (change in morphology and growth pattern) (P. aeruginosa ATCC 27853 [1]),Criteria (change in morphology and growth pattern) (E. coli ATCC 25922 [2]),CLSI QC range (MIC) (P. aeruginosa ATCC 27853 [3]),CLSI QC range (MIC) (E. coli ATCC 25922 [6]),SCMA Results (MIC) (E. coli ATCC 25922 [5]; unit assumed) [µg/mL],Criteria (change in morphology and growth pattern) (E. faecalis ATCC 29212 [8]),CLSI QC range (MIC) (E. faecalis ATCC 29212 [12]),SCMA Results (MIC) (E. faecalis ATCC 29212 [11]; time to result 4 hr),other results
NCC[C@H](O)C(=O)N[C@@H]1C[C@H](N)[C@@H](O[C@H]2O[C@H](CN)[C@@H](O)[C@H](O)[C@H]2O)[C@H](O)[C@H]1O[C@H]1O[C@H](CO)[C@@H](O)[C@H](N)[C@H]1O [Amikacin],Normal,Normal growth,1~4,0.5~4,,,,,SCMA Results (MIC) (P. aeruginosa ATCC 27853 [4]): 1~2; SCMA Results (MIC) (E. coli ATCC 25922 [5]): 0.5~1
C[C@H]1[C@H](NC(=O)/C(=N\OC(C)(C)C(=O)O)c2csc(N)n2)C(=O)N1S(=O)(=O)O [Aztreonam],Filament,Filament,2~8,0.06~0.25,0.12,,,,SCMA Results (MIC) (P. aeruginosa ATCC 27853 [4]): 2~4
Cc1nnc(SCC2=C(C(=O)O)N3C(=O)[C@@H](NC(=O)Cn4cnnn4)[C@H]3SC2)s1 [Cefazolin],,Filament,,1~4,2,,,,
CO/N=C(\C(=O)N[C@@H]1C(=O)N2C(C(=O)[O-])=C(C[N+]3(C)CCCC3)CS[C@H]12)c1csc(N)n1 [Cefepime],Filament,Filament,0.5~4,0.015~0.12,,,,,SCMA Results (MIC) (P. aeruginosa ATCC 27853 [4]): 0.5~2; SCMA Results (MIC) (E. coli ATCC 25922 [5]): 0.03~0.06
CO/N=C(\C(=O)N[C@@H]1C(=O)N2C(C(=O)O)=C(COC(C)=O)CS[C@H]12)c1csc(N)n1 [Cefotaxime],Filament,Filament,8~32,,0.06,,,,SCMA Results (MIC) (P. aeruginosa ATCC 27853 [4]; unit assumed): 16 µg/mL
CO[C@@]1(NC(=O)Cc2cccs2)C(=O)N2C(C(=O)O)=C(COC(N)=O)CS[C@@H]21 [Cefoxitin],,Filament,,2~8,2,,,,
CC(C)(O/N=C(\C(=O)N[C@@H]1C(=O)N2C(C(=O)[O-])=C(C[n+]3ccccc3)CS[C@H]12)c1csc(N)n1)C(=O)O [Ceftazidime],Filament formation,Filament,1~4,0.06~0.5,0.5,,,,SCMA Results (MIC) (P. aeruginosa ATCC 27853 [4]): 2~4
CC[C@H]1OC(=O)[C@H](C)[C@@H](O[C@H]2C[C@@](C)(OC)[C@@H](O)[C@H](C)O2)[C@H](C)[C@@H](O[C@@H]2O[C@H](C)C[C@H](N(C)C)[C@H]2O)[C@](C)(O)C[C@@H](C)C(=O)[C@H](C)[C@@H](O)[C@]1(C)O [Erythromycin],,,,,,RSG,1~4,,Criteria (change in morphology and growth pattern) (S. aureus ATCC 29213 [7]): RSG; CLSI QC range (MIC) (S. aureus ATCC 29213 [9]): 0.25~1; SCMA Results (MIC) (S. aureus ATCC 29213 [10]; [13]): 0.25 µg/mL; SCMA Results (MIC) (E. faecalis ATCC 29212 [11]; 6 hr): 1 (6 hr)
C[C@@H](O)[C@H]1C(=O)N2C(C(=O)O)=C(SCCN=CN)C[C@H]12 [Imipenem],,,,,0.12,,,,SCMA Results (MIC) (P. aeruginosa ATCC 27853 [4]; unit assumed): 1 µg/mL; SCMA Results (MIC) (S. aureus ATCC 29213 [10]; [13]): 0.03 µg/mL
C[C@H]1COc2c(N3CCN(C)CC3)c(F)cc3c(=O)c(C(=O)O)cn1c23 [Levofloxacin],,,,,,,,1 µg/mL,SCMA Results (MIC) (S. aureus ATCC 29213 [10]; time to result 4 hr): 0.12~0.25
CC(=O)NC[C@H]1CN(c2ccc(N3CCOCC3)c(F)c2)C(=O)O1 [Linezolid],,,,,,RSG,1~4,1~2,Criteria (change in morphology and growth pattern) (S. aureus ATCC 29213 [7]): RSG; Criteria (change in morphology and growth pattern) (E. faecalis ATCC 29212 [8]; listed as linezolid): Relatively slow growth (RSG); CLSI QC range (MIC) (S. aureus ATCC 29213 [9]): 1~4; SCMA Results (MIC) (S. aureus ATCC 29213 [10]; time to result 4 hr): 1~4
C[C@@H](O)[C@H]1C(=O)N2C(C(=O)O)=C(S[C@@H]3CN[C@H](C(=O)N(C)C)C3)[C@H](C)[C@H]12 [Meropenem],Swelling,,0.25~1,,,,,,SCMA Results (MIC) (P. aeruginosa ATCC 27853 [4]; unit assumed): 1 µg/mL
CCn1cc(C(=O)O)c(=O)c2cc(F)c(N3CCNCC3)cc21 [Norfloxacin],,Normal,,0.03~0.12,,RRG,2~8,2~4,SCMA Results (MIC) (E. coli ATCC 25922 [5]): 0.03~0.06
Cc1onc(-c2ccccc2)c1C(=O)N[C@@H]1C(=O)N2[C@@H]1SC(C)(C)[C@@H]2C(=O)O [Oxacillin],,,,,,,,,Criteria (change in morphology and growth pattern) (S. aureus ATCC 29213 [7]): RRG; CLSI QC range (MIC) (S. aureus ATCC 29213 [9]): 0.12~0.5; SCMA Results (MIC) (S. aureus ATCC 29213 [10]; [13]): 0.5 µg/mL
CCN1CCN(C(=O)N[C@@H](C(=O)N[C@@H]2C(=O)N3[C@@H]2SC(C)(C)[C@@H]3C(=O)O)c2ccccc2)C(=O)C1=O [Piperacillin],Filament,Filament formation,1~8,1~4,2,,,,SCMA Results (MIC) (P. aeruginosa ATCC 27853 [4]): 4~8
CO[C@H]1/C=C/O[C@@]2(C)Oc3c(C)c(O)c4c(O)c(c(/C=N/N5CCN(C)CC5)c(O)c4c3C2=O)NC(=O)/C(C)=C\C=C\[C@H](C)[C@H](O)[C@@H](C)[C@@H](O)[C@@H](C)[C@H](OC(C)=O)[C@@H]1C [Rifampin],,,,,,RSG,0.5~4,0.5 µg/mL,Criteria (change in morphology and growth pattern) (S. aureus ATCC 29213 [7]): RSG; CLSI QC range (MIC) (S. aureus ATCC 29213 [9]): 0.004~0.015; SCMA Results (MIC) (S. aureus ATCC 29213 [10]; 6 hr): 0.004~0.08 (6 hr)
"[H]/N=C(/N)N[C@H]1[C@H](O)[C@@H](O)[C@H](O[C@@H]2O[C@@H](C)[C@](O)(C=O)[C@H]2O[C@@H]2O[C@@H](CO)[C@H](O)[C@@H](O)[C@@H]2NC)[C@@H](N/C(N)=N\[H])[C@@H]1O [Streptomycin High Level, Streptomycin]",,,,,,Normal,,≤ 500 µg/mL,CLSI QC range (MIC) (E. faecalis ATCC 29212 [12]; unit assumed): ≤ 500 µg/mL
CC1(C)S[C@@H]2[C@H](NC(=O)[C@H](C(=O)O)c3ccsc3)C(=O)N2[C@H]1C(=O)O [Ticarcilin],Filament,,8~32,,,,,,SCMA Results (MIC) (P. aeruginosa ATCC 27853 [4]; unit assumed): 16 µg/mL
NC[C@H]1O[C@H](O[C@H]2[C@H](O)[C@@H](O[C@H]3O[C@H](CO)[C@@H](O)[C@H](N)[C@H]3O)[C@H](N)C[C@@H]2N)[C@H](N)C[C@@H]1O [Tobramycin],Normal,,0.25~1,,,,,,
CN[C@H](CC(C)C)C(=O)N[C@H]1C(=O)N[C@@H](CC(N)=O)C(=O)N[C@H]2C(=O)N[C@H]3C(=O)N[C@H](C(=O)N[C@H](C(=O)O)c4cc(O)cc(O)c4-c4cc3ccc4O)[C@H](O)c3ccc(c(Cl)c3)Oc3cc2cc(c3O[C@@H]2O[C@H](CO)[C@@H](O)[C@H](O)[C@H]2O[C@H]2C[C@](C)(N)[C@H](O)[C@H](C)O2)Oc2ccc(cc2Cl)[C@H]1O [Vancomycin],,,,,,Normal growth,1~4,2~4,Criteria (change in morphology and growth pattern) (S. aureus ATCC 29213 [7]): normal; CLSI QC range (MIC) (S. aureus ATCC 29213 [9]): 0.5~2; SCMA Results (MIC) (S. aureus ATCC 29213 [10]; [13]): 1 µg/mL
Penicillin,,,,,,Normal,1~4,1~2,Criteria (change in morphology and growth pattern) (S. aureus ATCC 29213 [7]): Normal; CLSI QC range (MIC) (S. aureus ATCC 29213 [9]): 0.25~2; SCMA Results (MIC) (S. aureus ATCC 29213 [10]; [13]): 0.5 µg/mL
Teicoplanin,,,,,,Normal,0.25~1,0.5 µg/mL,
